Results published in US20080045535A1, “Prokineticin 2 receptor antagonists” (priority 2005, published 2008).
Values joined by “and” are separate entries in the source; they are usually repeats but may differ in a detail not shown here. Equal values may be shown once.

Biological target: T1, HEK 293 GPR73 (prokineticin 1 receptor) expressing cells (Homo sapiens, UniProt Q8TCW9)
T1 construct: expressed in transfected cells; host or cells: HEK 293
Experiment: PK1 functional assay: screening for PK1 antagonists on the FLIPR (calcium fluorescence)
Assay type: cell-based
Details: HEK 293 GPR73 cells; for inhibition at 10 µM: HEK293, compound at 10 μM, read-out: Ca^2+ Mobilization % Inh @10 μM; for inhibition at 10 µM / Ca^2+ Mobilization % Inh @10 μM: multiple values = repeat tests; for IC50: PK1 ligand at EC50, multiple values = repeat tests, read-out: Ca^2+ Mobilization IC50; for Ca^2+ Mobilization % Inh @10 μM: compound at 10 μM
Procedure, shortened: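 HEK 293 cells expressing GPR73 were loaded with Calcium Plus Dye for 30 min at 37 C, then read for calcium fluorescence on FLIPR. Values were baseline-subtracted and expressed as percent of maximal control; percent inhibition is 100 minus that, and IC50 was fitted from it.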

T1 sequence (Q8TCW9 whole entry): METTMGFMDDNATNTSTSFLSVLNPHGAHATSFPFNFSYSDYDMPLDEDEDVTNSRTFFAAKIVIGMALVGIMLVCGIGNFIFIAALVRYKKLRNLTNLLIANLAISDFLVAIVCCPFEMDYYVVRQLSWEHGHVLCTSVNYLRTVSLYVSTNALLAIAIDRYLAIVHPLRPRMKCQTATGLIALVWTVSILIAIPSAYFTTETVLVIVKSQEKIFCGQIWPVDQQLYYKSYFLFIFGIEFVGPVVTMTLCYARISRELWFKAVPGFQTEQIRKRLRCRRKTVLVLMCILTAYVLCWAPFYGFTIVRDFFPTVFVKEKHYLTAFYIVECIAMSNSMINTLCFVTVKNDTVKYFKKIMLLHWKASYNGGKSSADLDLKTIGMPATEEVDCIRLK

Row | Compound | inhibition at 10 µM | IC50 | Ca^2+ Mobilization % Inh @10 μM (10 µM) | Ca^2+ Mobilization % Inh @10 μM
1 | COCCCNC(=N)NCCNc1nc(=O)n(Cc2ccc(F)cc2)c(=O)n1Cc1ccc(OC)cc1 [Cpd 115] | 99% | 47 nM | – | –
2 | COc1ccc(Cn2c(NCCN(C(=N)N)c3ccccc3F)nc(=O)n(Cc3ccc(F)cc3)c2=O)cc1 [Cpd 118, N-{2-[5-(4-Fluoro-benzyl)-1-(4-methoxy-benzyl)-4,6-dioxo-1,4,5,6-tetrahydro-[1,3,5]triazin-2-ylamino]-ethyl}-N-(2-fluoro-phenyl)-guanidine] | – | 6 nM | 98% and 102% | –
3 | COc1ccc(Cn2c(NCCNC(=N)Nc3ccc(C)cc3)nc(=O)n(Cc3ccc(F)cc3)c2=O)cc1 [Cpd 120] | 100% | 9 nM and 15 nM | 102% | –
4 | COc1ccc(Cn2c(NCCNC(=N)N)nc(=O)n(Cc3ccc(N)cc3)c2=O)cc1 [Cpd 125, N-{2-[5-(4-Amino-benzyl)-1-(4-methoxy-benzyl)-4,6-dioxo-1,4,5,6-tetrahydro-[1,3,5]triazin-2-ylamino]-ethyl}-guanidine] | 83% | 487 nM | – | –
5 | COc1ccc(Cn2c(NCCNC(=N)NC3C4CC5CC(C4)CC3C5)nc(=O)n(Cc3ccc(F)cc3)c2=O)cc1 (stereo not drawn) [Cpd 126] | 95% | 115 nM | – | –
6 | COc1ccc(Cn2c(NCCNC(=N)Nc3ccc(OC(F)(F)F)cc3)nc(=O)n(Cc3ccc(F)cc3)c2=O)cc1 [Cpd 127] | 100% | 58 nM | – | –
7 | NC(N)=NCCNc1nc(=O)n(Cc2ccc(Cl)cc2)c(=O)n1Cc1ccccc1 [Cpd 129] | 64% | 4780 nM | – | –
8 | N=C(N)NCCNc1nc(=O)n(Cc2ccc(Cl)cc2)c(=O)n1Cc1ccoc1 [Cpd 130] | 71% | 1870 nM | – | –
9 | COc1ccc(Cn2c(NC3CCC(NC(=N)N)CC3)nc(=O)n(Cc3ccc(F)cc3)c2=O)cc1 (stereo not drawn) [Cpd 131] | – | > 10000 nM | – | 32%
10 | COc1ccc(Cn2c(NCCNC(=N)Nc3ccccc3SC)nc(=O)n(Cc3ccc(F)cc3)c2=O)cc1 [Cpd 133] | 93% | 200 nM | – | –
11 | COc1ccc(Cn2c(NCCNC(=N)Nc3ncccn3)nc(=O)n(Cc3ccc(F)cc3)c2=O)cc1 [Cpd 135] | 100% | 13 nM and 24 nM | 94% | –
12 | COc1ccc(Cn2c(NCCNC(=N)Nc3nc4c(c(C(F)(F)F)n3)CCCC4)nc(=O)n(Cc3ccc(F)cc3)c2=O)cc1 [Cpd 138] | 70% | 1340 nM | – | –
13 | COc1ccc(Cn2c(NCCNC(=N)Nc3ccc(C)cn3)nc(=O)n(Cc3ccc(F)cc3)c2=O)cc1 [Cpd 139] | 95% | 18 nM | – | –
14 | COc1ccc(Cn2c(NCCNC(=N)N3CCOCC3)nc(=O)n(Cc3ccc(F)cc3)c2=O)cc1 [Cpd 140] | 89% | 455 nM | – | –
15 | COc1ccc(Cn2c(NCCCCCNC(=N)N)nc(=O)n(Cc3ccc(Cl)cc3)c2=O)cc1 [Cpd 142] | 90% | 323 nM | – | –
16 | COc1ccc(CCn2c(=O)nc(NCCNC(=N)N)n(Cc3ccc(OC)cc3)c2=O)cc1 [Cpd 145] | 86% | 461 nM | – | –
17 | COc1ccc(CCCn2c(=O)nc(NCCNC(=N)N)n(Cc3ccc(OC)cc3)c2=O)cc1 [Cpd 146] | 87% | 670 nM | – | –
18 | COC(=O)c1ccc(Cn2c(NCCNC(=N)N)nc(=O)n(Cc3ccc(Cl)c(Cl)c3)c2=O)cc1 [Cpd 147] | 82% | – | – | –
19 | NC(N)=NCCNc1nc(=O)n(Cc2ccc(Cl)cc2)c(=O)n1Cc1ccccc1 [Cpd 149] | – | 4780 nM | – | 64%
20 | N=C(N)NCCNc1nc(=O)n(Cc2ccc(Cl)cc2)c(=O)n1Cc1ccoc1 [Cpd 150] | – | 1870 nM | – | 71%
21 | CCCNC(=N)NCCNc1nc(=O)n(Cc2ccc(F)cc2)c(=O)n1Cc1ccc(OC)cc1 [Cpd 154] | 99% | 3 nM and 6 nM | 98% | –
22 | CCNC(=N)NCCNc1nc(=O)n(Cc2ccc(F)cc2)c(=O)n1Cc1ccc(OC)cc1 [Cpd 155] | 99% | 16 nM | – | –
23 | COc1ccc(Cn2c(C(=O)NCCNC(=N)N)cc(=O)n(Cc3ccc(OC)cc3)c2=O)cc1 [Cpd 157, 1,3-Bis-(4-methoxy-benzyl)-2,6-dioxo-1,2,3,6-tetrahydro-pyrimidine-4-carboxylic acid (2-guanidino-ethyl)-amide] | 92% | 197 nM | – | –
24 | COc1ccc(Cn2c(OCCNC(=N)N)cc(=O)n(Cc3ccc(OC)cc3)c2=O)cc1 [Cpd 158, N-{2-[1,3-Bis-(4-methoxy-benzyl)-2,6-dioxo-1,2,3,6-tetrahydro-pyrimidin-4-yloxy]-ethyl}-guanidine] | 93% | 254 nM | – | –
25 | COc1ccc(Cn2c(SCCNC(=N)N)cc(=O)n(Cc3ccc(OC)cc3)c2=O)cc1 [Cpd 159, N-{2-[1,3-Bis-(4-methoxy-benzyl)-2,6-dioxo-1,2,3,6-tetrahydro-pyrimidin-4-ylsulfanyl]-ethyl}-guanidine] | 98% | 13 nM | – | –
26 | COc1ccc(Cn2c(CCCNC(=N)N)cc(=O)n(Cc3ccc(OC)cc3)c2=O)cc1 [Cpd 160, N-{3-[1,3-Bis-(4-methoxy-benzyl)-2,6-dioxo-1,2,3,6-tetrahydro-pyrimidin-4-yl]-propyl}guanidine] | 89% | 616 nM | – | –

The next lines start with the values.

Row | inhibition at 10 µM | IC50 | Ca^2+ Mobilization % Inh @10 μM (10 µM) | Ca^2+ Mobilization % Inh @10 μM | Compound
27 | 99% | 41 nM | – | – | COc1ccc(Cn2c(NCCNC(=N)NCC(F)(F)F)nc(=O)n(Cc3ccc(F)cc3)c2=O)cc1 [Cpd 114]
28 | 99% | 57 nM | – | – | COc1ccc(Cn2c(NCCNC(=N)N3CCCCC3)nc(=O)n(Cc3ccc(F)cc3)c2=O)cc1 [Cpd 116]
29 | 79% | 84 nM | – | – | COc1ccc(Cn2c(NCCNC(=N)N(C)c3ccccc3)nc(=O)n(Cc3ccc(F)cc3)c2=O)cc1 [Cpd 117]
30 | 102% | 6 nM and 12 nM | 99% | – | COc1ccc(Cn2c(NCCNC(=N)Nc3ccc(F)cc3)nc(=O)n(Cc3ccc(F)cc3)c2=O)cc1 [Cpd 119, N-{2-[5-(4-Fluoro-benzyl)-1-(4-methoxy-benzyl)-4,6-dioxo-1,4,5,6-tetrahydro-[1,3,5]triazin-2-ylamino]-ethyl}-N′-(4-fluoro-phenyl)-guanidine]
31 | 101% | 20 nM and 33 nM | 98% | – | COc1ccc(Cn2c(NCCNC(=N)NC(C)(C)C)nc(=O)n(Cc3ccc(F)cc3)c2=O)cc1 [Cpd 121]
32 | 78% | 1080 nM | – | – | N=C(N)NCCNc1nc(=O)n(Cc2ccc(Cl)cc2)c(=O)n1Cc1ccc(N)cc1 [Cpd 122, N-{2-[1-(4-Amino-benzyl)-5-(4-chloro-benzyl)-4,6-dioxo-1,4,5,6-tetrahydro-[1,3,5]triazin-2-ylamino]-ethyl}-guanidine]
33 | 34% | > 10000 nM | – | – | COc1ccc(Cn2c(NCCNC(=N)N)nc(=O)n(CC(C)(C)C)c2=O)cc1 [Cpd 123]
34 | 74% | 1560 nM | – | – | COc1ccc(Cn2c(NCCNC(=N)N)nc(=O)n(CC3CCCC3)c2=O)cc1 [Cpd 124]
35 | 100% | 40 nM | – | – | COc1ccc(Cn2c(NCCNC(=N)Nc3ccc(O)cc3)nc(=O)n(Cc3ccc(F)cc3)c2=O)cc1 [Cpd 128]
36 | 54% | 8500 nM | – | – | COc1ccc(Cn2c(NCC(=O)NC(=N)NC(=O)OC(C)(C)C)nc(=O)n(Cc3ccc(F)cc3)c2=O)cc1 [Cpd 132, N-{2-[5-(4-fluoro-benzyl)-1-(4-methoxy-benzyl)-4,6-dioxo-1,4,5,6-tetrahydro-[1,3,5]triazin-2-ylamino]-acetyl}-N′-boc-guanidine]
37 | – | 19 nM and 28 nM | – | 97, 97% | COc1ccc(Cn2c(NCCN(C(=N)N)C(=O)c3ccccc3)nc(=O)n(Cc3ccc(F)cc3)c2=O)cc1 [Cpd 134, N-Benzoyl-N-{2-[5-(4-fluoro-benzyl)-1-(4-methoxy-benzyl)-4,6-dioxo-1,4,5,6-tetrahydro-[1,3,5]triazin-2-ylamino]-ethyl}-guanidine]
38 | 50% | > 10000 nM | – | – | COc1ccc(Cn2c(N[C@@H](C)[C@H](C)NC(=N)N)nc(=O)n(Cc3ccc(F)cc3)c2=O)cc1 [Cpd 136]
39 | 101% | 15 nM and 31 nM | – | – | COc1ccc(Cn2c(N[C@H](C)[C@@H](C)NC(=N)N)nc(=O)n(Cc3ccc(F)cc3)c2=O)cc1 [Cpd 137]
40 | 73% | 1840 nM | – | – | N=C(N)NCCNc1nc(=O)n(Cc2ccc(Cl)cc2)c(=O)n1Cc1ccco1 [Cpd 141]
41 | 100% | 6 nM and 27 nM | – | – | COc1ccc(Cn2c(=O)nc(NCCNC(=N)N)n(Cc3ccc(O)cc3)c2=O)cc1 [Cpd 143, N-{2-[1-(4-Hydroxy-benzyl)-5-(4-methoxy-benzyl)-4,6-dioxo-1,4,5,6-tetrahydro-[1,3,5]triazin-2-ylamino]-ethyl}-guanidine]
42 | 77% | 1330 nM | – | – | COc1ccc(Cn2c(NCCCCCCNC(=N)N)nc(=O)n(Cc3ccc(Cl)cc3)c2=O)cc1 [Cpd 144]
43 | 41% | > 10000 nM | – | – | CCCCOc1ccc(Cn2c(NCCNC(=N)N)nc(=O)n(Cc3ccccc3)c2=O)cc1 [Cpd 148]
44 | 99% | 3 nM | – | – | COc1ccc(Cn2c(NCCNC(=N)NC(C)=O)nc(=O)n(Cc3ccc(F)cc3)c2=O)cc1 [Cpd 151]
45 | 97% | 9 nM | – | – | C=CCNC(=N)NCCNc1nc(=O)n(Cc2ccc(F)cc2)c(=O)n1Cc1ccc(OC)cc1 [Cpd 152]
46 | 99% | 13 nM | – | – | COc1ccc(Cn2c(NCCNC(=N)NC(C)C)nc(=O)n(Cc3ccc(F)cc3)c2=O)cc1 [Cpd 153]
47 | 102% | 4 nM and 7 nM | 99% | – | CNC(=N)NCCNc1nc(=O)n(Cc2ccc(F)cc2)c(=O)n1Cc1ccc(OC)cc1 [Cpd 156]
